Patent US20260042764A1, “COMPOSITIONS AND METHODS FOR INHIBITION OF KRAS” (TheRas, Inc., priority 2022, published 2026)

Each molecule was assayed against T1, Avi-KRAS G12D (1-169) GppNHp/RAF1 RBD-3xFLAG (52-151) (Homo sapiens, UniProt P01116, G12D) (assay: Raf1-KRAS G12D-GppNHP disruption HTRF assay (Biological Example 1)). Conditions: KRAS G12D-GppNHp/RAF1 RBD HTRF.
T1 construct: Avi-KRAS G12D (1-169)
Assay type: binding
Outline: (§1)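 Measured with a KRAS/RAF1 HTRF assay at pH 7.5 in 10% DMSO, with two 1 h room-temperature incubations with shaking.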

T1 sequence (P01116 1-169 isoform P01116-2 G12D): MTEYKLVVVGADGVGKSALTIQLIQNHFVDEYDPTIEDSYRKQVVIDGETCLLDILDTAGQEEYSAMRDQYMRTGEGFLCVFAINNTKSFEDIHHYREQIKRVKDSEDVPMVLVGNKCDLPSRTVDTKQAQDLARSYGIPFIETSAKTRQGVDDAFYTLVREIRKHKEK

SMILES | IC50 [nM]
CC(=O)N1C[C@@H]2CCCN(c3nc(OC[C@@]45CCCN4C[C@H](F)C5)nc4c(F)c(-c5ccc(F)c6sc(N)c(C#N)c56)c(C(F)(F)F)cc34)[C@@H]2C1 [Compound 451] | 100 to 1000
CN(c1nc(OC[C@@]23CCCN2C[C@H](F)C3)nc2c(F)c(-c3ccc(F)c4sc(N)c(C#N)c34)c(C(F)(F)F)cc12)[C@@H]1CC(=O)N(Cc2ccccc2)C1 [Compound 452] | 100 to 1000
CC(=O)N1C[C@H]2CCCN(c3nc(OC[C@@]45CCCN4C[C@H](F)C5)nc4c(F)c(-c5ccc(F)c6sc(N)c(C#N)c56)c(C(F)(F)F)cc34)[C@H]2C1 [Compound 453] | 1000 to 10000
CC(=O)N1C[C@@H](N(C)c2nc(OC[C@@]34CCCN3C[C@H](F)C4)nc3c(F)c(-c4ccc(F)c5sc(N)c(C#N)c45)c(C(F)(F)F)cc23)C[C@@H]1CF [Compound 454] | 100 to 1000
CC(=O)N1C[C@@H]2CC[C@H]1CN2c1nc(OC[C@@]23CCCN2C[C@H](F)C3)nc2c(F)c(-c3ccc(F)c4sc(N)c(C#N)c34)c(C(F)(F)F)cc12 [Compound 455] | 100 to 1000
N#Cc1c(N)sc2c(F)ccc(-c3c(C(F)(F)F)cc4c(N5C[C@@H]6CC[C@H]5CN6C(=O)C5CC5)nc(OC[C@@]56CCCN5C[C@H](F)C6)nc4c3F)c12 [Compound 456] | 100 to 1000

The molecules below were run against T2, Avi-KRAS G12R (1-169) GppNHp/RAF1 RBD-3xFLAG (52-151) (Homo sapiens, UniProt P01116, G12R) (assay: Raf1-KRAS G12R-GppNHP disruption HTRF assay (Biological Example 1)). Conditions: KRAS G12R-GppNHp/RAF1 RBD HTRF.
T2 construct: Avi-KRAS G12R (1-169)
T2 sequence (P01116 1-169 isoform P01116-2 G12R): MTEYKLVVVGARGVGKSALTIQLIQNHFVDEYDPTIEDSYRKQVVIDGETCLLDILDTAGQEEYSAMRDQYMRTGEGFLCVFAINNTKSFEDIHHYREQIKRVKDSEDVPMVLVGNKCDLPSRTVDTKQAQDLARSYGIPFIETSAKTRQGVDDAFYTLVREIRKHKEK
Assay type: binding
Outline: as §1

SMILES | IC50 [nM]
CC(=O)N1C[C@@H]2CCCN(c3nc(OC[C@@]45CCCN4C[C@H](F)C5)nc4c(F)c(-c5ccc(F)c6sc(N)c(C#N)c56)c(C(F)(F)F)cc34)[C@@H]2C1 [Compound 451] | 1000 to 10000
CN(c1nc(OC[C@@]23CCCN2C[C@H](F)C3)nc2c(F)c(-c3ccc(F)c4sc(N)c(C#N)c34)c(C(F)(F)F)cc12)[C@@H]1CC(=O)N(Cc2ccccc2)C1 [Compound 452] | 100 to 1000
CC(=O)N1C[C@H]2CCCN(c3nc(OC[C@@]45CCCN4C[C@H](F)C5)nc4c(F)c(-c5ccc(F)c6sc(N)c(C#N)c56)c(C(F)(F)F)cc34)[C@H]2C1 [Compound 453] | 1000 to 10000
CC(=O)N1C[C@@H](N(C)c2nc(OC[C@@]34CCCN3C[C@H](F)C4)nc3c(F)c(-c4ccc(F)c5sc(N)c(C#N)c45)c(C(F)(F)F)cc23)C[C@@H]1CF [Compound 454] | 100 to 1000
CC(=O)N1C[C@@H]2CC[C@H]1CN2c1nc(OC[C@@]23CCCN2C[C@H](F)C3)nc2c(F)c(-c3ccc(F)c4sc(N)c(C#N)c34)c(C(F)(F)F)cc12 [Compound 455] | 100 to 1000
N#Cc1c(N)sc2c(F)ccc(-c3c(C(F)(F)F)cc4c(N5C[C@@H]6CC[C@H]5CN6C(=O)C5CC5)nc(OC[C@@]56CCCN5C[C@H](F)C6)nc4c3F)c12 [Compound 456] | 100 to 1000

Each molecule was assayed against T3, Avi-KRAS G12V (1-169) GppNHp/RAF1 RBD-3xFLAG (52-151) (Homo sapiens, UniProt P01116, G12V) (assay: Raf1-KRAS G12V-GppNHP disruption HTRF assay (Biological Example 1)). Conditions: KRAS G12V-GppNHp/RAF1 RBD HTRF.
T3 construct: Avi-KRAS G12V (1-169)
T3 sequence (P01116 1-169 isoform P01116-2 G12V): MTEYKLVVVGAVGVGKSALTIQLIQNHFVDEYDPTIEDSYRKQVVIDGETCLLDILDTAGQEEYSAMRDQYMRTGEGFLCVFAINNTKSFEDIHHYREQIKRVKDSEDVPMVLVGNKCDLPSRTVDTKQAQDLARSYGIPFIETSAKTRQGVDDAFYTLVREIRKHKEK
Assay type: binding
Outline: as §1

SMILES | IC50 [nM]
CC(=O)N1C[C@@H]2CCCN(c3nc(OC[C@@]45CCCN4C[C@H](F)C5)nc4c(F)c(-c5ccc(F)c6sc(N)c(C#N)c56)c(C(F)(F)F)cc34)[C@@H]2C1 [Compound 451] | 1000 to 10000
CN(c1nc(OC[C@@]23CCCN2C[C@H](F)C3)nc2c(F)c(-c3ccc(F)c4sc(N)c(C#N)c34)c(C(F)(F)F)cc12)[C@@H]1CC(=O)N(Cc2ccccc2)C1 [Compound 452] | 100 to 1000
CC(=O)N1C[C@H]2CCCN(c3nc(OC[C@@]45CCCN4C[C@H](F)C5)nc4c(F)c(-c5ccc(F)c6sc(N)c(C#N)c56)c(C(F)(F)F)cc34)[C@H]2C1 [Compound 453] | 1000 to 10000
CC(=O)N1C[C@@H](N(C)c2nc(OC[C@@]34CCCN3C[C@H](F)C4)nc3c(F)c(-c4ccc(F)c5sc(N)c(C#N)c45)c(C(F)(F)F)cc23)C[C@@H]1CF [Compound 454] | 100 to 1000
CC(=O)N1C[C@@H]2CC[C@H]1CN2c1nc(OC[C@@]23CCCN2C[C@H](F)C3)nc2c(F)c(-c3ccc(F)c4sc(N)c(C#N)c34)c(C(F)(F)F)cc12 [Compound 455] | 1000 to 10000
N#Cc1c(N)sc2c(F)ccc(-c3c(C(F)(F)F)cc4c(N5C[C@@H]6CC[C@H]5CN6C(=O)C5CC5)nc(OC[C@@]56CCCN5C[C@H](F)C6)nc4c3F)c12 [Compound 456] | 100 to 1000

What follows are molecules tested against T4, Avi-KRAS WT (1-169) GppNHp/RAF1 RBD-3xFLAG (52-151) (Homo sapiens, UniProt P01116) (assay: Raf1-KRAS WT-GppNHP disruption HTRF assay (Biological Example 1)). Conditions: KRAS WT-GppNHp/RAF1 RBD HTRF.
T4 construct: Avi-KRAS WT (1-169)
T4 sequence (P01116 1-169 isoform P01116-2): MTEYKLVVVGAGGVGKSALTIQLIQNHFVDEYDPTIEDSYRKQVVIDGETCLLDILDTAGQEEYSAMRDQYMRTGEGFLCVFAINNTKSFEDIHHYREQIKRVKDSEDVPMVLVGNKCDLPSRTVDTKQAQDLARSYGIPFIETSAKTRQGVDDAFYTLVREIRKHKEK
Assay type: binding
Outline: as §1

SMILES | IC50 [nM]
CC(=O)N1C[C@@H]2CCCN(c3nc(OC[C@@]45CCCN4C[C@H](F)C5)nc4c(F)c(-c5ccc(F)c6sc(N)c(C#N)c56)c(C(F)(F)F)cc34)[C@@H]2C1 [Compound 451] | 100 to 1000
CN(c1nc(OC[C@@]23CCCN2C[C@H](F)C3)nc2c(F)c(-c3ccc(F)c4sc(N)c(C#N)c34)c(C(F)(F)F)cc12)[C@@H]1CC(=O)N(Cc2ccccc2)C1 [Compound 452] | 100 to 1000
CC(=O)N1C[C@H]2CCCN(c3nc(OC[C@@]45CCCN4C[C@H](F)C5)nc4c(F)c(-c5ccc(F)c6sc(N)c(C#N)c56)c(C(F)(F)F)cc34)[C@H]2C1 [Compound 453] | 1000 to 10000
CC(=O)N1C[C@@H](N(C)c2nc(OC[C@@]34CCCN3C[C@H](F)C4)nc3c(F)c(-c4ccc(F)c5sc(N)c(C#N)c45)c(C(F)(F)F)cc23)C[C@@H]1CF [Compound 454] | 100 to 1000
CC(=O)N1C[C@@H]2CC[C@H]1CN2c1nc(OC[C@@]23CCCN2C[C@H](F)C3)nc2c(F)c(-c3ccc(F)c4sc(N)c(C#N)c34)c(C(F)(F)F)cc12 [Compound 455] | 100 to 1000
N#Cc1c(N)sc2c(F)ccc(-c3c(C(F)(F)F)cc4c(N5C[C@@H]6CC[C@H]5CN6C(=O)C5CC5)nc(OC[C@@]56CCCN5C[C@H](F)C6)nc4c3F)c12 [Compound 456] | 100 to 1000

Each molecule was assayed on GP2d cells (KRAS G12D) (assay: Cell-based pERK HTRF assay in GP2d cell (Biological Example 2)). Conditions: GP2d, GP2d (KRAS G12D) cells, pERK HTRF.
Outline: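 Phospho-ERK is measured by HTRF following a 60 min compound exposure at 0.25% DMSO, with a 9-point half-log curve topping at 1 μM or 100 nM.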

SMILES | IC50 [nM]
CC(=O)N1C[C@@H]2CCCN(c3nc(OC[C@@]45CCCN4C[C@H](F)C5)nc4c(F)c(-c5ccc(F)c6sc(N)c(C#N)c56)c(C(F)(F)F)cc34)[C@@H]2C1 [Compound 451] | < 100
CN(c1nc(OC[C@@]23CCCN2C[C@H](F)C3)nc2c(F)c(-c3ccc(F)c4sc(N)c(C#N)c34)c(C(F)(F)F)cc12)[C@@H]1CC(=O)N(Cc2ccccc2)C1 [Compound 452] | < 100
CC(=O)N1C[C@H]2CCCN(c3nc(OC[C@@]45CCCN4C[C@H](F)C5)nc4c(F)c(-c5ccc(F)c6sc(N)c(C#N)c56)c(C(F)(F)F)cc34)[C@H]2C1 [Compound 453] | < 100
CC(=O)N1C[C@@H](N(C)c2nc(OC[C@@]34CCCN3C[C@H](F)C4)nc3c(F)c(-c4ccc(F)c5sc(N)c(C#N)c45)c(C(F)(F)F)cc23)C[C@@H]1CF [Compound 454] | < 100
CC(=O)N1C[C@@H]2CC[C@H]1CN2c1nc(OC[C@@]23CCCN2C[C@H](F)C3)nc2c(F)c(-c3ccc(F)c4sc(N)c(C#N)c34)c(C(F)(F)F)cc12 [Compound 455] | < 100
N#Cc1c(N)sc2c(F)ccc(-c3c(C(F)(F)F)cc4c(N5C[C@@H]6CC[C@H]5CN6C(=O)C5CC5)nc(OC[C@@]56CCCN5C[C@H](F)C6)nc4c3F)c12 [Compound 456] | < 100

Each molecule was assayed on SW620 cells (KRAS G12V) (assay: Cell-based pERK HTRF assay in SW620 cell (Biological Example 4)). Conditions: Homo sapiens, SW-620, SW620 (KRAS G12V) cells, pERK HTRF.
Outline: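 This assay measures inhibition of ERK phosphorylation downstream of KRAS G12V in intact SW620 cells. Compounds are applied for 4 h over nine half-log concentrations starting at 1 μM, and pERK is quantified by HTRF.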

SMILES | IC50 [nM]
CC(=O)N1C[C@@H]2CCCN(c3nc(OC[C@@]45CCCN4C[C@H](F)C5)nc4c(F)c(-c5ccc(F)c6sc(N)c(C#N)c56)c(C(F)(F)F)cc34)[C@@H]2C1 [Compound 451] | 100 to 1000
CN(c1nc(OC[C@@]23CCCN2C[C@H](F)C3)nc2c(F)c(-c3ccc(F)c4sc(N)c(C#N)c34)c(C(F)(F)F)cc12)[C@@H]1CC(=O)N(Cc2ccccc2)C1 [Compound 452] | 100 to 1000
CC(=O)N1C[C@H]2CCCN(c3nc(OC[C@@]45CCCN4C[C@H](F)C5)nc4c(F)c(-c5ccc(F)c6sc(N)c(C#N)c56)c(C(F)(F)F)cc34)[C@H]2C1 [Compound 453] | < 100
CC(=O)N1C[C@@H](N(C)c2nc(OC[C@@]34CCCN3C[C@H](F)C4)nc3c(F)c(-c4ccc(F)c5sc(N)c(C#N)c45)c(C(F)(F)F)cc23)C[C@@H]1CF [Compound 454] | < 100
CC(=O)N1C[C@@H]2CC[C@H]1CN2c1nc(OC[C@@]23CCCN2C[C@H](F)C3)nc2c(F)c(-c3ccc(F)c4sc(N)c(C#N)c34)c(C(F)(F)F)cc12 [Compound 455] | 100 to 1000
N#Cc1c(N)sc2c(F)ccc(-c3c(C(F)(F)F)cc4c(N5C[C@@H]6CC[C@H]5CN6C(=O)C5CC5)nc(OC[C@@]56CCCN5C[C@H](F)C6)nc4c3F)c12 [Compound 456] | < 100
